Experimental data: paper PMC3880613 (Journal of medicinal chemistry, 2013)

Assays:
PC43-10 cells (hRFC) = conditions: read-out: IC50 growth inhibition PC43-10; cited from earlier work
FRβ = FRβ (Homo sapiens, UniProt P14207); assay: FR binding assay, competition with [3H]folic acid on D4 cells; conditions: D4 CHO cells, pH 7.4, [3H]folic acid 50 nM, 0°C; Figure 3, in words
FRα = FRα (Homo sapiens, UniProt P15328); assay: FR binding assay, competition with [3H]folic acid on RT16 cells; conditions: RT16 CHO cells, pH 7.4, [3H]folic acid 50 nM, 0°C; Figure 3, in words
Chain of FRα (P15328 25-257): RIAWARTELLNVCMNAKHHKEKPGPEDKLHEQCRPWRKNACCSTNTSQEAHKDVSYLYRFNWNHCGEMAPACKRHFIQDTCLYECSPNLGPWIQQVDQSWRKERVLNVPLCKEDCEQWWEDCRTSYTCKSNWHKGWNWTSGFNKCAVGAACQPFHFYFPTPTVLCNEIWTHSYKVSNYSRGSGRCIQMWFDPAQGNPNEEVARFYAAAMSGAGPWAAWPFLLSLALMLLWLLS

[1] = tested on: KB human nasopharyngeal carcinoma cells (hRFC/FRα/hPCFT); assay: Growth inhibition assay, KB human tumor cells; conditions: 96 h, read-out: IC50 growth inhibition KB

Chain of FRβ (P14207 17-255): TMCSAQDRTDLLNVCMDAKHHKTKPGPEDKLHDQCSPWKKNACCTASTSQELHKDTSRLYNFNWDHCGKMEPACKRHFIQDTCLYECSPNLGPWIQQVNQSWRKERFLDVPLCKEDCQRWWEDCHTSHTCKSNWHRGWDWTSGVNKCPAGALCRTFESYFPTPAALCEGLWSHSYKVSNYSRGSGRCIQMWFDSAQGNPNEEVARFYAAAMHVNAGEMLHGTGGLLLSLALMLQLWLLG

IC50 [1] | SMILES | Relative binding affinity to FRα (folic acid = 1.0) (FRα) | other results
> 1000 nM | Nc1nc2[nH]c(CCCCCC(=O)O)cc2c(=O)[nH]1 [7e, 6-(2-Amino-4-oxo-4,7-dihydro-3H-pyrrolo[2,3-d]pyrimidin-6-yl)hexanoic acid] |  | 
> 1000 nM | Nc1nc2[nH]c(CCCCCCC(=O)O)cc2c(=O)[nH]1 [7f, 7-(2-Amino-4-oxo-4,7-dihydro-3H-pyrrolo[2,3-d]pyrimidin-6-yl)heptanoic acid] |  | 
> 1000 nM | Nc1nc2[nH]c(CCCCCCCC(=O)O)cc2c(=O)[nH]1 [7g, 8-(2-Amino-4-oxo-4,7-dihydro-3H-pyrrolo[2,3-d]pyrimidin-6-yl)octanoic acid] |  | 
> 1000 nM | Nc1nc2[nH]c(CCCCCCCCC(=O)O)cc2c(=O)[nH]1 [7h, 9-(2-Amino-4-oxo-4,7-dihydro-3H-pyrrolo[2,3-d]pyrimidin-6-yl)nonanoic acid] | detectable binding | 

Second part, the compound before the results:

SMILES | IC50 [1] | Relative binding affinity to FRα (folic acid = 1.0) (FRα) | other results
Nc1nc2[nH]c(CCCCc3ccc(C(=O)N[C@@H](CCC(=O)O)C(=O)O)cc3)cc2c(=O)[nH]1 [2b] |  |  | IC50 (PC43-10 cells (hRFC)): > 1000 nM
Nc1nc2[nH]c(CCCCCCCCC(=O)N[C@@H](CCC(=O)O)C(=O)O)cc2c(=O)[nH]1 [3d, (S)-2-(9-(2-Amino-4-oxo-4,7-dihydro-3H-pyrrolo[2,3-d]pyrimidin-6-yl)nonanamido)pentanedioic acid] |  | approximating those for compounds 2a and 2b | Relative binding affinity to FRβ (folic acid = 1.0) (FRβ): approximating those for compounds 2a and 2b
